Paper doi:10.1101/2024.08.13.607785v1 (biorxiv, 2024)

Columns and labels:
Parameters in all cases: species or system mixed lysate of K562, MV4-11, THP-1, NCI-H1155
[1] = target: Casein kinase I isoform gamma-2 ; CSNK1G2 ; P78368 (Homo sapiens, UniProt P78368); conditions: DIA-MS residual binding; binder
[2] = target: T1, Ephrin type-B receptor 2 ; EPHB2 ; P29323 (Homo sapiens, UniProt P29323); conditions: DIA-MS residual binding; binder
T1 sequence (P29323 1-1055): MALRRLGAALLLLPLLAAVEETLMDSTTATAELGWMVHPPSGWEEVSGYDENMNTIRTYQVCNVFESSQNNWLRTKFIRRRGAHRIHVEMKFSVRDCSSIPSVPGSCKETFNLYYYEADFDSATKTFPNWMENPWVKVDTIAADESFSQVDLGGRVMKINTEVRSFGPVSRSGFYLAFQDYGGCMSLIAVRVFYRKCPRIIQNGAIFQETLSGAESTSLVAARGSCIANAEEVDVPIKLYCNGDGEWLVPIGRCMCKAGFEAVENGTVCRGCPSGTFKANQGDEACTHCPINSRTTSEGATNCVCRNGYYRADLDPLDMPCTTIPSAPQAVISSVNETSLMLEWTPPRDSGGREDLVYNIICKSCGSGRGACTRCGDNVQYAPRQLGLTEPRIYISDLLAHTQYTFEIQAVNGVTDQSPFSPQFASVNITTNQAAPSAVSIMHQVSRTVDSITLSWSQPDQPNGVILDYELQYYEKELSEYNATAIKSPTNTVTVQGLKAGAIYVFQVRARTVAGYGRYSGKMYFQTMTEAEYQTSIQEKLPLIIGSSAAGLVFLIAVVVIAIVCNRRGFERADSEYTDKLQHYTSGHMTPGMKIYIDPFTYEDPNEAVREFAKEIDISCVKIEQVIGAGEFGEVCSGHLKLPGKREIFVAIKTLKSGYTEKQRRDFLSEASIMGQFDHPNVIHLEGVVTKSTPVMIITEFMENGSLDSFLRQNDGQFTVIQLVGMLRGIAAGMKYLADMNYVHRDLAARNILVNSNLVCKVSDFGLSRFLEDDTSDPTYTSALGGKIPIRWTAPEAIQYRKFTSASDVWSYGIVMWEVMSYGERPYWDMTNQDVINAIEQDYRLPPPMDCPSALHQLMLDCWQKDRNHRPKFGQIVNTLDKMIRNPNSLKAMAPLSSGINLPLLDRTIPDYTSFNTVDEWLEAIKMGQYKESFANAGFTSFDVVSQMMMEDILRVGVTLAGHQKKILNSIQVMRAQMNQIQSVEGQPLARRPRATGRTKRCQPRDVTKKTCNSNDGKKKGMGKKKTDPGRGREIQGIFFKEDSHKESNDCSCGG

[3] = target: Epithelial discoidin domain-containing receptor 1 ; DDR1 ; Q08345 (Homo sapiens, UniProt Q08345); conditions: binder
[4] = target: Isoform 3 of Serine/threonine-protein kinase SIK3 ; SIK3-7 ; Q9Y2K2-7 (Homo sapiens, UniProt Q9Y2K2); conditions: DIA-MS residual binding; binder
[5] = target: Isoform 4 of Serine/threonine-protein kinase SIK3 ; SIK3-8 ; Q9Y2K2-8 (Homo sapiens, UniProt Q9Y2K2); conditions: DIA-MS residual binding; binder
[6] = target: MAP kinase-interacting serine/threonine-protein kinase 1 ; MKNK1 ; Q9BUB5 (Homo sapiens, UniProt Q9BUB5); conditions: binder
[7] = target: Mitogen-activated protein kinase 14 ; MAPK14 ; Q16539 (Homo sapiens, UniProt Q16539); conditions: DIA-MS residual binding; binder
[8] = target: Mitogen-activated protein kinase 14 ; MAPK14-2 ; Q16539-2 (Homo sapiens, UniProt Q16539); conditions: DIA-MS residual binding; binder
[9] = target: Mitogen-activated protein kinase kinase kinase kinase 5 ; MAP4K5 ; Q9Y4K4 (Homo sapiens, UniProt Q9Y4K4); conditions: DIA-MS residual binding; binder
[10] = target: Phosphatidylinositol 4-kinase alpha ; PI4KA ; P42356 (Homo sapiens, UniProt P42356); conditions: DIA-MS residual binding; binder
[11] = target: Receptor-interacting serine/threonine-protein kinase 2 ; RIPK2 ; O43353 (Homo sapiens, UniProt O43353); conditions: DIA-MS residual binding; binder
[12] = target: Serine/threonine-protein kinase LMTK2 ; LMTK2 ; Q8IWU2 (Homo sapiens, UniProt Q8IWU2); conditions: DIA-MS residual binding; binder
Sequence of Serine/threonine-protein kinase LMTK2 ; LMTK2 ; Q8IWU2 (Q8IWU2 whole entry, one chain of several): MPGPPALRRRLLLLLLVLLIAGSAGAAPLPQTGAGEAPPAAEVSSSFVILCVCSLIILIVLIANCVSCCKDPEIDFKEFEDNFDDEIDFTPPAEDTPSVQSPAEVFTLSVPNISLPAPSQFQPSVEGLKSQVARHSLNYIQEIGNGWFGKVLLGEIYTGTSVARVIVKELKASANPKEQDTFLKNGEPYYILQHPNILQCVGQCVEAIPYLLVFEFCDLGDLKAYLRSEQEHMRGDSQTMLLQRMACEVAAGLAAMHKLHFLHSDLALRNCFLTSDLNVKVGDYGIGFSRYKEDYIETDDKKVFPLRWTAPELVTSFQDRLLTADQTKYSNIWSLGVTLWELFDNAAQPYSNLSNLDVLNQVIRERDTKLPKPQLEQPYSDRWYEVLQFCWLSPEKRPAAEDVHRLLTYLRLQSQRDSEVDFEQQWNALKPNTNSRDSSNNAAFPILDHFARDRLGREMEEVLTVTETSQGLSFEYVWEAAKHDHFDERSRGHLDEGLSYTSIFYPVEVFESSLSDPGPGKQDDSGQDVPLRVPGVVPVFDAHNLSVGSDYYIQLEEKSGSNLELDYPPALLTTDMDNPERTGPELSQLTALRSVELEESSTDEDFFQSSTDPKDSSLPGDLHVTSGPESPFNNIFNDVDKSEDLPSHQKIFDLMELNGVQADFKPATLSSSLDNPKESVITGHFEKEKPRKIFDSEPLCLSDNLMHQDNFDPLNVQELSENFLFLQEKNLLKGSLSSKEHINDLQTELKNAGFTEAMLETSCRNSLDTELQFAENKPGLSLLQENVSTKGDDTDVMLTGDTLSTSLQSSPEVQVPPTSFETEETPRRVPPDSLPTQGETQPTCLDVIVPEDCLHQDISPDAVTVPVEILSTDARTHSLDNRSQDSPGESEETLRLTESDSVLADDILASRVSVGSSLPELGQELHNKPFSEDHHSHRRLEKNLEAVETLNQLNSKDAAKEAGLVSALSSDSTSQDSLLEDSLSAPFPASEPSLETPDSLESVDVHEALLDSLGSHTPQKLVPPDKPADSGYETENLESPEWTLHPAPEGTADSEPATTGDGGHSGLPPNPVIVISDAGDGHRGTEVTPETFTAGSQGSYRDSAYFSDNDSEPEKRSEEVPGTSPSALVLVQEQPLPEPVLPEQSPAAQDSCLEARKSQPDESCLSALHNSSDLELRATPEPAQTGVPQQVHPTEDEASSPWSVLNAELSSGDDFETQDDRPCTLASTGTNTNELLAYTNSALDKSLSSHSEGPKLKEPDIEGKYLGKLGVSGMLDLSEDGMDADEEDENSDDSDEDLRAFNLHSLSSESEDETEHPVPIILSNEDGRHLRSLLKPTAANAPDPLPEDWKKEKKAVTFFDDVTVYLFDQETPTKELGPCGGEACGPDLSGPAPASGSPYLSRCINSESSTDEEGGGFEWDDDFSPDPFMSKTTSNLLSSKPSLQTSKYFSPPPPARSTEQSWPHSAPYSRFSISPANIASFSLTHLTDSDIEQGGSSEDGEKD

Sequence of Mitogen-activated protein kinase kinase kinase kinase 5 ; MAP4K5 ; Q9Y4K4 (Q9Y4K4 whole entry): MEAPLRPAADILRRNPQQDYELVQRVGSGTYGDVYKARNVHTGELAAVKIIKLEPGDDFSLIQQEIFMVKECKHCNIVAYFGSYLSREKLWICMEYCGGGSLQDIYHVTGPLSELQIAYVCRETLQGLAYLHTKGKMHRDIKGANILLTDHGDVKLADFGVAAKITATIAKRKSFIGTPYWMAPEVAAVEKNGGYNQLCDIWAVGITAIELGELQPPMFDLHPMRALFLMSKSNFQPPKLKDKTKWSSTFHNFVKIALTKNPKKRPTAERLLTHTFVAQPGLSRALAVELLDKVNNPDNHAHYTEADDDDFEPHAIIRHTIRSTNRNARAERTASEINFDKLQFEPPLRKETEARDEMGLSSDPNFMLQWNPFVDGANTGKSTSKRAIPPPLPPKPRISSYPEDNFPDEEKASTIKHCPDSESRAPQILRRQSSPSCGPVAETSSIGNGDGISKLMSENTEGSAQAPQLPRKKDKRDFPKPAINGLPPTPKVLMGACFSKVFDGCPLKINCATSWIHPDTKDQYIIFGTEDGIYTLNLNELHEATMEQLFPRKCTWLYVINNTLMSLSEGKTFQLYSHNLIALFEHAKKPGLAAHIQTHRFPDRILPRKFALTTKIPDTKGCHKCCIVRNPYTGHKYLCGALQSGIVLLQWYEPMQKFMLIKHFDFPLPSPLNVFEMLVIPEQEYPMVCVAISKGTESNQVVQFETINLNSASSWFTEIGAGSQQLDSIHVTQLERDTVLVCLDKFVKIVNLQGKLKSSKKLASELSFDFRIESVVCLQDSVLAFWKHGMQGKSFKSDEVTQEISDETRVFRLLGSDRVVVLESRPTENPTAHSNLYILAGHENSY
Sequence of Casein kinase I isoform gamma-2 ; CSNK1G2 ; P78368 (P78368 whole entry, canonical isoform): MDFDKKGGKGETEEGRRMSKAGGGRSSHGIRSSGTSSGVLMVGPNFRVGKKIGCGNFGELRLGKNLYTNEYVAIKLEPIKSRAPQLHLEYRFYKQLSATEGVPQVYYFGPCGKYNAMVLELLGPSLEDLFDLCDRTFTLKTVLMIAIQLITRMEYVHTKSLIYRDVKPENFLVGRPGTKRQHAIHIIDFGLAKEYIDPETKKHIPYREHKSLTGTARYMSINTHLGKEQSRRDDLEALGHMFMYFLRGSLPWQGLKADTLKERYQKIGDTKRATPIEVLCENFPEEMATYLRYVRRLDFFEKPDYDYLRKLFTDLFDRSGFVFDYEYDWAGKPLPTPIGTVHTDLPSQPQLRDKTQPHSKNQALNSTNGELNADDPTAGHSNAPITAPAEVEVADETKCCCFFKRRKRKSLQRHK
Sequence of Receptor-interacting serine/threonine-protein kinase 2 ; RIPK2 ; O43353 (O43353 whole entry, one chain of several): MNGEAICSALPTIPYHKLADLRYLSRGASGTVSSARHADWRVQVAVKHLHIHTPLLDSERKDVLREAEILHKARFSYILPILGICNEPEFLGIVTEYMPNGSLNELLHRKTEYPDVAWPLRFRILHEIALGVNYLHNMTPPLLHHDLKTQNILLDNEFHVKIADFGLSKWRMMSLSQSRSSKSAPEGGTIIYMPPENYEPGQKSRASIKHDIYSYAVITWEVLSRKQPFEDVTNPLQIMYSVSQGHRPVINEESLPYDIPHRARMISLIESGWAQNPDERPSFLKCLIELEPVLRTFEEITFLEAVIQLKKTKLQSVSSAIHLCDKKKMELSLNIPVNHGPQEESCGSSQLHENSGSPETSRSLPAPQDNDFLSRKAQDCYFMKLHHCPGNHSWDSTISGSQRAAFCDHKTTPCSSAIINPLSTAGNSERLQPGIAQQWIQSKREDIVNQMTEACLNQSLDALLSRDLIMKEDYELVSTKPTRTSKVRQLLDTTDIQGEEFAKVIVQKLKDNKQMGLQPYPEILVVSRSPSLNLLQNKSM
Sequence of Epithelial discoidin domain-containing receptor 1 ; DDR1 ; Q08345 (Q08345 whole entry, the tested form may be a part, canonical isoform): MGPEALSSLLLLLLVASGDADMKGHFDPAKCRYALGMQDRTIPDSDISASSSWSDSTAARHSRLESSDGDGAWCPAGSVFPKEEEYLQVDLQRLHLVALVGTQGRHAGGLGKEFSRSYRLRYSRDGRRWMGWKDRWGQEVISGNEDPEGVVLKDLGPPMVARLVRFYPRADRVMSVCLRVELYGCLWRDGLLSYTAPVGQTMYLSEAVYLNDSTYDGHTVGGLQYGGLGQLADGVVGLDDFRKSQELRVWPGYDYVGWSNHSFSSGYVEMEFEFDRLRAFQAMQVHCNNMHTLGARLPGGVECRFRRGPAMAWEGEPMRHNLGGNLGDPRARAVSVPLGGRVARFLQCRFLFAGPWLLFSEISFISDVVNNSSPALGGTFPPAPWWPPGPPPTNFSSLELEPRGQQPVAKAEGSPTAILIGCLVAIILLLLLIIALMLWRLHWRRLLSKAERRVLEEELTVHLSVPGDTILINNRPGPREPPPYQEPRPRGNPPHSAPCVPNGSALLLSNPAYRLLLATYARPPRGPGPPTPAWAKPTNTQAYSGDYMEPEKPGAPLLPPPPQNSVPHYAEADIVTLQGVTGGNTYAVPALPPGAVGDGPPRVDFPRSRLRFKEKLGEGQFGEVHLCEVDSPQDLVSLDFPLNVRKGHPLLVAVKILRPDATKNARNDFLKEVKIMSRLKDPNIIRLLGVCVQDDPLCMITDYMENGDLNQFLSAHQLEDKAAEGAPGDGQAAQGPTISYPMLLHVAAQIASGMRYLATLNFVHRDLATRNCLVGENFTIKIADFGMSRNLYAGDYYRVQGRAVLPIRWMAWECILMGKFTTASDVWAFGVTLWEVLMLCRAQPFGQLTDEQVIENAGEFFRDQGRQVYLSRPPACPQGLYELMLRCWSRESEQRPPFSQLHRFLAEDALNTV
Sequence of MAP kinase-interacting serine/threonine-protein kinase 1 ; MKNK1 ; Q9BUB5 (Q9BUB5 whole entry, one chain of several): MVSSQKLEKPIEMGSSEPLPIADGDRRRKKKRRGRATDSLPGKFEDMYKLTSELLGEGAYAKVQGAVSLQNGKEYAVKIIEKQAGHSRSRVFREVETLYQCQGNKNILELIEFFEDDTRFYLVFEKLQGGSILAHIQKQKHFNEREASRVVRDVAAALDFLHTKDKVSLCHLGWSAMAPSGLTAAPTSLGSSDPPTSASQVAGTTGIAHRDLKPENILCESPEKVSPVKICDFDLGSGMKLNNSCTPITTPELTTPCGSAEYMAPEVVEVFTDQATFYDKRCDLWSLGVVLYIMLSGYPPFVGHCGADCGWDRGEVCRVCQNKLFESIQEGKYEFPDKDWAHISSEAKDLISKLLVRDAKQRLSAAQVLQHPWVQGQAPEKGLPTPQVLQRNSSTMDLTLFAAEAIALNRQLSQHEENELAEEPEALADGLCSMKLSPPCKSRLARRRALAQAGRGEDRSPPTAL
Sequence of Mitogen-activated protein kinase 14 ; MAPK14 ; Q16539 (Q16539 whole entry): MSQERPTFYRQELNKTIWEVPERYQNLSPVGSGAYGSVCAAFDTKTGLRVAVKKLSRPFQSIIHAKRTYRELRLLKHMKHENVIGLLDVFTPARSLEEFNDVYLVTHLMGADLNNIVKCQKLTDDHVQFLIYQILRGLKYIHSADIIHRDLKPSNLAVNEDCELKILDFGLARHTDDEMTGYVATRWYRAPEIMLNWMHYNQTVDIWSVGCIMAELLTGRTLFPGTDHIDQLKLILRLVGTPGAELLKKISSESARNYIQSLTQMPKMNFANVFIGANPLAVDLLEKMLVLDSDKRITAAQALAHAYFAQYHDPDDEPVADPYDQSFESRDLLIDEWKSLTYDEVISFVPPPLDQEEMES

DIA-MS / % Intensity (30 µM/DMSO) [1]: 45.01%
DIA-MS / % Intensity (30 µM/DMSO) [2]: 3.776%
DIA-MS / % Intensity (30 µM/DMSO) [3]: 2.942%
DIA-MS / % Intensity (30 µM/DMSO) [4]: 12.26%
DIA-MS / % Intensity (30 µM/DMSO) [5]: 10.64%
DIA-MS / % Intensity (30 µM/DMSO) [6]: 27.84%
DIA-MS / % Intensity (30 µM/DMSO) [7]: 32.28%
DIA-MS / % Intensity (30 µM/DMSO) [8]: 35.75%
DIA-MS / % Intensity (30 µM/DMSO) [9]: 28.36%
DIA-MS / % Intensity (30 µM/DMSO) [10]: 31.23%
DIA-MS / % Intensity (30 µM/DMSO) [11]: 2.357%
DIA-MS / % Intensity (30 µM/DMSO) [12]: 9.818%
SMILES: Cc1nc(Nc2ncc(C(=O)Nc3c(C)cccc3Cl)s2)cc(N2CCN(CCO)CC2)n1 [dasatinib]
